Test [1] deals with ovarian cancer cell line, SK-OV-3. As to the kind of experiment: SK-OV-3 cell growth inhibition (MTT, 72 hrs). The conditions noted are these: Homo sapiens, concentration giving 50% cell survival, reported as ranges. The format is cell-based. In a few lines: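 After overnight seeding in McCoy's medium with 10% FBS, SK-OV-3 cells were exposed to compound at 0.003-10 μM for 72 hrs at 37° C. MTT was then added for 3 h, with DMSO solubilization and OD read at 535 nm. CC50 is the concentration giving 50% survival relative to untreated control, reported as ranges.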

For the next test, the target named is T1, cIAP-1 BIR-3 (Homo sapiens, UniProt Q13490).
T1 construct: 40 nM of the respective IAP BIR3
T1 sequence (Q13490 253-363 limits assumed): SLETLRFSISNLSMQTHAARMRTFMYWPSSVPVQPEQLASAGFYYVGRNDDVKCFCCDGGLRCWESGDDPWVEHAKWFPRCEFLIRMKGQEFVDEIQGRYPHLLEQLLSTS
As to the kind of experiment: Fluorescence polarization binding to cIAP-1 BIR-3 with labeled peptide AbuRPF-K(5-Fam)-NH2. To be noted: 40 nM BIR3, 5 nM labeled peptide, reported as ranges, read-out: KD (c-IAP-1 BIR3). In a few lines: (§1)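 Competitive FP: compounds titrated against 5 nM AbuRPF-K(5-Fam)-NH2 tracer and 40 nM BIR3 protein, 15 min at RT in 0.1 M potassium phosphate pH 7.5 with bovine γ-globulin. Polarization read at 485/520 nm; KD reported in ranges A <0.1, B 0.1–1, C >1–10, D >10 μM.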
A general note: In fluorescence polarisation assays a small probe gives low polarisation when free and higher when bound to something large.

For another test, the target named is T2, XIAP BIR-3 (Homo sapiens, UniProt P98170).
T2 construct: 40 nM of the respective IAP BIR3
T2 sequence (P98170 241-356 limits assumed): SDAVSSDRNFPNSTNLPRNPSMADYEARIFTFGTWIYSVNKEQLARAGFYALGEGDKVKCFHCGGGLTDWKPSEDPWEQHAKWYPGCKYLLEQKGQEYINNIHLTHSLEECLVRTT
As to the kind of experiment: Fluorescence polarization binding to XIAP BIR-3 with labeled peptide AbuRPF-K(5-Fam)-NH2. The conditions noted are these: 40 nM BIR3, 5 nM labeled peptide, reported as ranges. In a few lines:
as §1

Broadly, the CC50 is the concentration that lowers cell viability or growth by half. One may read the Kd as the free concentration of one partner at which half of the binding sites on the other are occupied at equilibrium, for simple one-to-one binding.

In turn, `CN[C@@H](C)C(=O)N[C@H](C(=O)N1CC[C@@H]2[C@H]1[C@@H](OCc1ccc(F)cc1)CN2C(=O)C(C)=O)C(C)(C)C` [Example 42, N-{1-[6-(4-Fluoro-benzyloxy)-4-(2-oxo-propionyl)-hexahydro-pyrrolo[3,2-b]pyrrole-1-carbonyl]-2,2-dimethyl-propyl}-2-methylamino-propionamide] returned a CC50 in test [1] of less than 100 nM. Also, the Kd on cIAP-1 BIR-3 and at XIAP BIR-3 was less than 100 nM each time.
In test [1], `CN[C@@H](C)C(=O)N[C@H](C(=O)N1CC[C@@H]2[C@H]1[C@@H](Oc1ccc(F)c(F)c1)CN2S(C)(=O)=O)[C@@H](C)OC` [Example 14, N-{1-[6-(3,4-Difluoro-phenoxy)-4-methanesulfonyl-hexahydro-pyrrolo[3,2-b]pyrrole-1-carbonyl]-2-methoxy-propyl}-2-methylamino-propionamide] gave a CC50 of less than 100 nM. The Kd on cIAP-1 BIR-3 and at XIAP BIR-3 was less than 100 nM each time.
`CN[C@@H](C)C(=O)N[C@H](C(=O)N1CC[C@@H]2[C@H]1[C@@H](OC(=O)N1CCOCC1)CN2C(=O)NC(C)C)C(C)(C)C` [Example 60, Morpholine-4-carboxylic acid 4-[3,3-dimethyl-2-(2-methylamino-propionylamino)-butyryl]-1-isopropylcarbamoyl-octahydro-pyrrolo[3,2-b]pyrrol-3-yl ester] displayed a cytotoxic concentration (CC50) in test [1] of 1000 to 10000 nM. Besides, the dissociation constant Kd at cIAP-1 BIR-3 was less than 100 nM; at XIAP BIR-3, 1000 to 10000 nM.
For `CN[C@@H](C)C(=O)N[C@H](C(=O)N1CC[C@@H]2[C@H]1[C@@H](Oc1ccc(F)c(F)c1)CN2S(C)(=O)=O)C1CCCCC1` [Example 13, N-{1-Cyclohexyl-2-[6-(3,4-difluoro-phenoxy)-4-methanesulfonyl-hexahydro-pyrrolo[3,2-b]pyrrol-1-yl]-2-oxo-ethyl}-2-methylamino-propionamide], the CC50 in test [1] is less than 100 nM. Moreover, the Kd at cIAP-1 BIR-3 and on XIAP BIR-3 was less than 100 nM throughout.
With `CN[C@@H](C)C(=O)N[C@H](C(=O)N1CC[C@@H]2[C@H]1[C@@H](OC(=O)N1CCCCC1)CN2C(=O)NC(C)C)C(C)(C)C` [Example 59, Piperidine-1-carboxylic acid 4-[3,3-dimethyl-2-(2-methylamino-propionylamino)-butyryl]-1-isopropylcarbamoyl-octahydro-pyrrolo[3,2-b]pyrrol-3-yl ester], the CC50 in test [1] lay in the range of 1000 to 10000 nM. For the same compound, the equilibrium dissociation constant (Kd) was less than 100 nM at cIAP-1 BIR-3 and 1000 to 10000 nM on XIAP BIR-3.
In test [1], `CN[C@@H](C)C(=O)N[C@H](C(=O)N1CC[C@@H]2[C@H]1[C@@H](Oc1ccc(F)c(F)c1)CN2C(C)=O)C(C)(C)C` [Example 21, N-{1-[4-Acetyl-6-(3,4-difluoro-phenoxy)-hexahydro-pyrrolo[3,2-b]pyrrole-1-carbonyl]-2,2-dimethyl-propyl}-2-methylamino-propionamide] displayed a CC50 of less than 100 nM. In addition, the Kd on cIAP-1 BIR-3 is less than 100 nM; at XIAP BIR-3, 100 to 1000 nM.
Take `CN[C@@H](C)C(=O)N[C@H](C(=O)N1CC[C@@H]2[C@H]1[C@@H](OC(=O)NC1CCCC1)CN2C(=O)NC(C)C)C(C)(C)C` [Example 56, Cyclopentyl-carbamic acid 4-[3,3-dimethyl-2-(2-methylamino-propionylamino)-butyryl]-1-isopropylcarbamoyl-octahydro-pyrrolo[3,2-b]pyrrol-3-yl ester]: the CC50 in test [1] lay in the range of 100 to 1000 nM. Besides, the Kd at cIAP-1 BIR-3 is less than 100 nM; at XIAP BIR-3, 100 to 1000 nM.
`CN[C@@H](C)C(=O)N[C@H](C(=O)N1CC[C@@H]2[C@H]1[C@@H](OC(=O)Nc1ccccc1)CN2C(=O)NC(C)C)C(C)(C)C` [Example 47, Phenyl-carbamic acid 4-[3,3-dimethyl-2-(2-methylamino-propionylamino)-butyryl]-1-isopropylcarbamoyl-octahydro-pyrrolo[3,2-b]pyrrol-3-yl ester] gave a CC50 in test [1] of less than 100 nM. The Kd at cIAP-1 BIR-3 is less than 100 nM; on XIAP BIR-3 it was 100 to 1000 nM.
Consider `CN[C@@H](C)C(=O)N[C@H](C(=O)N1CC[C@H]2NC[C@H](Oc3ccc4ccccc4c3)[C@H]21)C1CCCCC1` [Example 7, N-{1-Cyclohexyl-2-[6-(naphthalen-2-yloxy)-hexahydro-pyrrolo[3,2-b]pyrrol-1-yl]-2-oxo-ethyl}-2-methylamino-propionamide], for which, in test [1], the CC50 is less than 100 nM. For the same compound, the Kd on cIAP-1 BIR-3 and on XIAP BIR-3 was less than 100 nM each time.
`CN[C@@H](C)C(=O)N[C@H](C(=O)N1CC[C@@H]2[C@H]1[C@@H](OCc1ccc(F)cc1)CN2C(=O)NC(C)C)C(C)(C)C` [Example 37, 4-[3,3-Dimethyl-2-(2-methylamino-propionylamino)-butyryl]-3-(4-fluoro-benzyloxy)-hexahydro-pyrrolo[3,2-b]pyrrole-1-carboxylic acid isopropylamide]: in test [1], the CC50 is less than 100 nM. Besides, the Kd at cIAP-1 BIR-3 and at XIAP BIR-3 was less than 100 nM each time.
Consider `CN[C@@H](C)C(=O)N[C@H](C(=O)N1CC[C@@H]2[C@H]1[C@@H](COc1ccc(F)c(F)c1)CN2c1ncccn1)C(C)(C)C` [Example 72, N-{1-[6-(3,4-Difluoro-phenoxymethyl)-4-pyrimidin-2-yl-hexahydro-pyrrolo[3,2-b]pyrrole-1-carbonyl]-2,2-dimethylpropyl}-2-methylamino-propionamide], for which the CC50 in test [1] was less than 100 nM. The Kd at cIAP-1 BIR-3 is less than 100 nM; at XIAP BIR-3 it was 100 to 1000 nM.
Compound `CN[C@@H](C)C(=O)N[C@H](C(=O)N1CC[C@H]2NC[C@H](Oc3ccccc3-c3ccccc3)[C@H]21)C1CCCCC1` [Example 4, N-{2-[6-(Biphenyl-2-yloxy)-hexahydro-pyrrolo[3,2-b]pyrrol-1-yl]-1-cyclohexyl-2-oxo-ethyl}-2-methylamino-propionamide] came in with a CC50 in test [1] of 100 to 1000 nM. Moreover, the Kd was less than 100 nM at cIAP-1 BIR-3 and 100 to 1000 nM at XIAP BIR-3.
The compound `CN[C@@H](C)C(=O)N[C@H](C(=O)N1CC[C@@H]2[C@H]1[C@@H](O)CN2C(=O)NC(C)C)C(C)(C)C` [Example 61, 4-[3,3-Dimethyl-2-(2-methylamino-propionylamino)-butyryl]-3-hydroxy-hexahydro-pyrrolo[3,2-b]pyrrole-1-carboxylic acid isopropylamide] gave a CC50 in test [1] of 1000 to 10000 nM. Further, the results for the Kd at cIAP-1 BIR-3 and on XIAP BIR-3 were 100 to 1000 nM and more than 10000 nM, respectively.
In test [1], `CN[C@@H](C)C(=O)N[C@H](C(=O)N1CC[C@@H]2[C@H]1[C@@H](COc1ccc(F)c(F)c1)CN2C(=O)OC)C(C)(C)C` [Example 70, 3-(3,4-Difluoro-phenoxymethyl)-4-[3.3-dimethyl-2-(2-methylaminopropionylamino)-butyryl]-hexahydro-pyrrolo[3,2-b]pyrrole-1-carboxylic acid methyl ester] had a CC50 of less than 100 nM. The Kd at cIAP-1 BIR-3 and on XIAP BIR-3 was less than 100 nM throughout.

The values are drawn from US8415486B2, “IAP inhibitors” (TetraLogic Pharmaceuticals Corp., priority 2009, dated 2013).
